# Experiments:
# [1] = GSH reactivity in PBS buffer at pH 7.4 assessed as half life; assay type: ADME
# [2] = target: T1, Tyrosine-protein kinase ABL1 (Homo sapiens, UniProt P00519); experiment: Inhibition of wild type N-terminal His tagged ABL kinase (unknown origin) using fluorescence-labelled substrate by off-chip mobility shift assay
# [3] = target: T1, Tyrosine-protein kinase ABL1; experiment: Inhibition of recombinant ABL kinase (unknown origin) assessed as inhibition constant
# [4] = target: T1, Tyrosine-protein kinase ABL1; experiment: Inhibition of recombinant ABL kinase (unknown origin) assessed as inactivation rate constant (Kinact)
# [5] = GSH reactivity in PBS buffer at pH 8 assessed as second-order reaction rate constants upto 200 uM by DTNB assay; assay type: ADME; settings: pH 8, 200 µM
# [6] = Reactivity rate at cyclic sulfonamide assessed as rate constant by CSA sulfenic-acid model; assay type: physicochemical
# [7] = target: T2, Carbonic anhydrase 2 (Homo sapiens, UniProt P00918); experiment: Rate of protein modification at carbonic anhydrase II (unknown origin) fragment assessed as inhibition constant
# [8] = target: T2, Carbonic anhydrase 2; experiment: Binding affinity to carbonic anhydrase II (unknown origin) fragment assessed as rate of protein modification by measuring inactivation rate constant (Kinact)
# [9] = Cysteine-reactive in peptide assessed as half life using fluorogenic monochlorobimane/zinc complex by measuring fluorescence intensity; assay type: ADME; settings: cysteine-containing peptide
# [10] = target: Bromodomain-containing protein 4 (Homo sapiens) (UniProt O60885); experiment: Binding affinity to his-tagged recombinant BRD4 BD1 (unknown origin) assessed as increase in thermal stability by measuring change in melting temperature after 4 hrs by cellular thermal shift assay
# [11] = Cytotoxicity against African green monkey Vero E6 cells; assay type: toxicity, cell-based, Vero C1008; settings: chlorocebus sabaeus
# [12] = Chemical stability of the compound in pH 7.4 buffer assessed as half life; assay type: physicochemical
# [13] = Reactivity of SuTEx assessed as aryl-LG modifications by measuring half life by HLPC analysis; assay type: physicochemical
# [14] = target: T3, Replicase polyprotein 1ab (Severe acute respiratory syndrome coronavirus 2, UniProt P0DTD1); experiment: Inhibition of SARS-CoV-2 papain-like protease (PLpro) using fluorogenic peptide substrate by fluorescent assay
# [15] = Reactivity of SuTEx assessed as aryl-AG modifications by measuring half life by HLPC analysis; assay type: physicochemical
# [16] = Toxicity in ip dosed mature male rabbit assessed as death; assay type: organism-based, Oryctolagus cuniculus; settings: in vivo
# [17] = target: Tyrosine-protein kinase BTK (Homo sapiens, UniProt Q06187); settings: A-431, dose 1.0 µM
# [18] = target: T3, Replicase polyprotein 1ab; experiment: Inhibition of SARS-CoV-2 cysteine protease main protease
# [19] = GSH reactivity in PBS buffer at pH 8 at 14 degC assessed as half life upto 200 uM; assay type: ADME
# [20] = target: NAD-dependent protein deacylase sirtuin-5, mitochondrial (Homo sapiens) (UniProt Q9NXA8); experiment: Inhibition of SIRT5 (unknown origin) assessed as inactivation rate constant (Kinact)
# [21] = target: NAD-dependent protein deacylase sirtuin-5, mitochondrial (Homo sapiens) (UniProt Q9NXA8); experiment: Inhibition of SIRT5 (unknown origin) assessed as reaction rate Kinact/Ki ratio
# T1 sequence (P00519 whole entry): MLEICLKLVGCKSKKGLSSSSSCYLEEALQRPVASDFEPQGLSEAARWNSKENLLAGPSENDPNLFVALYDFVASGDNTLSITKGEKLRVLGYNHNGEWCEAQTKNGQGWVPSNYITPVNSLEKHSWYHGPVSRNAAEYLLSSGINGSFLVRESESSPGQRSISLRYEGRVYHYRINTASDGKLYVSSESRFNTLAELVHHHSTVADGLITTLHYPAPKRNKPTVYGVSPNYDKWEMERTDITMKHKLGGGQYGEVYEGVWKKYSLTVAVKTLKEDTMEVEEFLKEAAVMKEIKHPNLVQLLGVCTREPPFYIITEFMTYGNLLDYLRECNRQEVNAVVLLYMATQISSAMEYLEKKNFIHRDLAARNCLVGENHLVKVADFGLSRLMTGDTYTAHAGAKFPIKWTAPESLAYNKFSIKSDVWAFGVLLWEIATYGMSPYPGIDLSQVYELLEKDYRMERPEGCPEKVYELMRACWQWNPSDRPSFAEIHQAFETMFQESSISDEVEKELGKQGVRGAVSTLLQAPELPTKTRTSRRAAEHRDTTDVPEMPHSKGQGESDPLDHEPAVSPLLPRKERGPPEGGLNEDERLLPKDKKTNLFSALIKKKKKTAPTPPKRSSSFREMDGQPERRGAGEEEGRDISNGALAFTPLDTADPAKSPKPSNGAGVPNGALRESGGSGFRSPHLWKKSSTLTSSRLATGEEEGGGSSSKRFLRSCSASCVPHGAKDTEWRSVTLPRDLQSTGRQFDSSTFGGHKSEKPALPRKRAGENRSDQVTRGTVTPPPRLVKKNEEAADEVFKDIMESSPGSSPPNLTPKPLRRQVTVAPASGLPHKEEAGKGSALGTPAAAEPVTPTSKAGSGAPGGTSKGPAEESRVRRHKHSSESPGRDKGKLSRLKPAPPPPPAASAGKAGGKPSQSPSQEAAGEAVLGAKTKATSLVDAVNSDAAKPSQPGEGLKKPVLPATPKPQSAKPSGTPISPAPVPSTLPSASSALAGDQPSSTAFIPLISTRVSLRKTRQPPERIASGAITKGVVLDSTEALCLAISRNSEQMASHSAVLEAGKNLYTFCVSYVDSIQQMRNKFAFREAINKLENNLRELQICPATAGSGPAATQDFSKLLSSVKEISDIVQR
# Chain of NAD-dependent protein deacylase sirtuin-5, mitochondrial (Homo sapiens) (Q9NXA8 37-310 limits assumed): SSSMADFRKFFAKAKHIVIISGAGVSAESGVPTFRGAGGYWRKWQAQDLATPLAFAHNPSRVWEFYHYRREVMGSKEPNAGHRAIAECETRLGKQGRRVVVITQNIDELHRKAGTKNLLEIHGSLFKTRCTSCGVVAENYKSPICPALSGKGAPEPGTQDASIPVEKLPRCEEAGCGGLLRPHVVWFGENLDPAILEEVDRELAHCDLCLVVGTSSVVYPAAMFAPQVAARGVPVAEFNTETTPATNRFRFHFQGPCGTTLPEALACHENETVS
# Chain of Tyrosine-protein kinase BTK (Q06187 whole entry): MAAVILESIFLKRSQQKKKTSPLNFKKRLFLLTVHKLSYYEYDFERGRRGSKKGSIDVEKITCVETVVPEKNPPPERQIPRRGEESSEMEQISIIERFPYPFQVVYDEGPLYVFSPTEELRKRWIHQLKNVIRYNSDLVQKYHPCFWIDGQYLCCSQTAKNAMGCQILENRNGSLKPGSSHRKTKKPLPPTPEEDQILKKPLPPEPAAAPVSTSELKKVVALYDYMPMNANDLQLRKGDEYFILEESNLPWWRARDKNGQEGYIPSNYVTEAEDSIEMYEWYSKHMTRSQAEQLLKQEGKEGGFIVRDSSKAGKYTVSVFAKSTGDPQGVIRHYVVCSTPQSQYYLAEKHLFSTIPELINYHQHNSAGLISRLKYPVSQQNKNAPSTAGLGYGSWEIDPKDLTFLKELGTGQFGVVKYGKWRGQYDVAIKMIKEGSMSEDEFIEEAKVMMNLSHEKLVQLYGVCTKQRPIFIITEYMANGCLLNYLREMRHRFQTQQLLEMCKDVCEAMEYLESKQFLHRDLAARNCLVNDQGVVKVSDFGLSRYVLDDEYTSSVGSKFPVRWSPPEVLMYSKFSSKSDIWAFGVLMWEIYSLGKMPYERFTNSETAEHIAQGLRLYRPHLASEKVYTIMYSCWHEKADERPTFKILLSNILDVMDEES
smiles,measurement,setting,value
C#CCOCCOCCOc1cccc(N2CCN(C(=O)C(F)F)CC2)c1,half-life,[1],129 h
O=S(=O)(c1ccccc1)C12CC1C2 (centres undefined),half-life,[1],11.8 h
C#CCN(C)C(=O)c1cncc(-c2cnc3[nH]cc(-c4cc(C=O)c(C#C)cc4OC)c3c2)c1,IC50,[2],0.0028 µM
same,Ki,[3],3.2 µM
same,Kinact,[4],5.54 10^-3/s
O=C(COS(=O)(=O)Nc1ccccc1)NCc1ccccc1,K,[5],0.009 M⁻¹ s⁻¹
C#CCCCC1CCC(=O)CC1=O (centres undefined),K,[6],10 M⁻¹ s⁻¹
NS(=O)(=O)c1cccc(CNC(=O)c2ccc(S(=O)(=O)F)cc2)c1,Ki,[7],< 5 µM
same,Kinact,[8],12 10^-5/s
NC(=O)CCl,half-life,[9],0.04 h
same,half-life,[1],< 1.67 h
Cc1noc(C)c1-c1ccc(=O)n(Cc2ccc(C3CO3)cc2)c1 (centres undefined),ΔTm,[10],22 °C
C[C@@H](NC(=O)[C@H](c1cccnc1)N(C(=O)C(Cl)Cl)c1ccc(-c2ccccc2)cc1)c1ccccc1,CC50,[11],> 100 µM
CC#CC1=Nc2ccccc2C(C)(C)O1,half-life,[12],> 167 h
same,half-life,[1],1.37 h
CS(=O)(=O)OCC(=O)NCc1ccccc1,K,[5],0.134 M⁻¹ s⁻¹
COc1ccc(-c2ncn(S(=O)(=O)c3ccc(F)cc3)n2)cc1,half-life,[13],0.237 h
CCSc1nc2sc3c(c2c(=O)n1CC)CCc1ccccc1-3,half-life,[1],0.683 h
same,IC50,[14],4.9 µM
CC(NS(=O)(=O)c1ccc(S(=O)(=O)F)cc1)c1cccc(S(N)(=O)=O)c1 (centres undefined),Ki,[7],< 5 µM
same,Kinact,[8],1.7 10^-5/s
COc1ccc(-c2ncn(S(=O)(=O)C3CC3)n2)cc1,half-life,[15],> 6 h
C=CC(=O)NCc1ccccc1,K,[5],0.003 M⁻¹ s⁻¹
O=C(NCCCCCCCCNC(=O)C(Cl)Cl)C(Cl)Cl,LD50,[16],10000 mg/kg
NS(=O)(=O)c1cccc(CNS(=O)(=O)c2ccc(S(=O)(=O)F)cc2)c1,Ki,[7],< 5 µM
same,Kinact,[8],9.6 10^-5/s
C#Cc1cccc(Oc2ccc(-c3nn(CCc4ccccc4N(C)C(=O)C45CC4C5)c4ncnc(N)c34)cc2)c1 (centres undefined),V0,[17],9.7 10^-5/s
same,half-life,[1],32.7 h
C=CCSc1nc2sc3c(c2c(=O)n1CC)CCc1ccccc1-3,half-life,[1],0.683 h
same,IC50,[14],0.8 µM
CN(C)S(=O)(=O)OCC(=O)NCc1ccccc1,K,[5],0.012 M⁻¹ s⁻¹
O=S(=O)(c1ccc(F)cc1)n1cnc(-c2ccc(Br)cc2)n1,half-life,[13],0.11 h
C#Cc1cc(OC)c(-c2ccc3nc(NC(=O)NCO)sc3c2)cc1C=O,Ki,[3],0.013 µM
same,Kinact,[4],1.27 10^-3/s
NC(=O)C(F)Cl (centres undefined),half-life,[9],4.4 h
same,half-life,[1],17 h
C[C@@H](NC(=O)[C@H](c1cccnc1)N(C(=O)C(Br)(Br)Br)c1ccc(-c2ccccc2)cc1)c1ccccc1,IC50,[18],0.08 µM
same,CC50,[11],5.48 µM
NS(=O)(=O)c1cccc(CNC(=O)Cc2ccc(S(=O)(=O)F)cc2)c1,Ki,[7],< 5 µM
same,Kinact,[8],0.73 10^-5/s
CN(C)C/C=C/C(N)=O,half-life,[9],0.51 h
C#CCOCCOCCOc1cccc(N2CCN(C(=O)C(C)(F)Br)CC2)c1 (centres undefined),half-life,[1],> 167 h
CC(NC(=O)Cc1ccc(S(=O)(=O)F)cc1)c1cccc(S(N)(=O)=O)c1 (centres undefined),Ki,[7],22 µM
same,Kinact,[8],0.97 10^-5/s
O=C(COS(=O)(=O)NCc1ccccc1)NCc1ccccc1,K,[5],0.02 M⁻¹ s⁻¹
same,half-life at up to 200 µM,[19],~12 h
CC(=O)N(C)c1ccccc1,half-life,[1],0.333 h
NS(=O)(=O)c1ccc(CCNC(=O)c2ccc(S(=O)(=O)F)cc2)cc1,Ki,[7],< 5 µM
same,Kinact,[8],0.89 10^-5/s
CC(NC(=O)c1cccc(S(=O)(=O)F)c1)c1cccc(S(N)(=O)=O)c1 (centres undefined),Ki,[7],53 µM
same,Kinact,[8],0.24 10^-5/s
C#CCNC(=O)c1ccc(S(=O)(=O)N[C@@H](CCCCNC(=O)c2cncc(OS(=O)(=O)F)c2)C(=O)N[C@@H](CCCNC(=N)N)C(=O)NC2CCC2)cc1,Kinact,[20],2.83 10^-4/s
same,Ratio,[21],2.9 M⁻¹ s⁻¹
NC(=O)C(F)Br (centres undefined),half-life,[1],0.15 h

# — ChEMBL document CHEMBL5512664, “Emerging and Re-emerging Warheads for Targeted Covalent Inhibitors: An Update” (J Med Chem, 2024)
